In patent publication US12378210B2, “Pharmaceutical composition comprising tizoxanide and pharmaceutical use thereof” (BEIJING JUNKE HUAYUAN MED TECH CO., LTD., priority 2020, dated 2025):
Values joined by “and” are separate entries in the source; they are usually repeats but may differ in a detail not shown here. Identical values can stand only once. Counter-ions that a name gives are not always drawn. Like-named read-outs stand apart in the source and are kept apart here.

Tests used:
[1] = parameters: species or system SD rats; conditions: male, SD, rat, in vivo, po
Description: 34.75 mg of nitazoxanide was added to 10 mL of 0.5% sodium carboxymethylcellulose solution, and the mixture was mixing homogeneously for later use; 41.67 mg of tizoxanide choline salt of formula (I) prepared in Example 2 was added to 10 mL of 0.5% sodium carboxymethylcellulose solution, and the mixture was mixed homogeneously for later use; 30 mg of tizoxanide was added to 5 mL of 0.5% sodium carboxymethylcellulose solution, followed by addition of 40% aqueous choline hydroxide solution, and the mixture was mixed homogeneously, and then added with 0.5% sodium carboxymethyl cellulose solution to a final volume of 10 mL to obtain a mixture of tizoxanide and choline for later use. […] Provided were male SD rats weighing 180 g to 220 g, 3 rats each group; all animals were fasted for 12 h prior to administration. The rats were separately administered intragastrically with the solution of the nitazoxanide, the solution of the tizoxanide choline salt of formula (I) or the mixture of tizoxanide and choline described above at a dose of 10 mL/kg each. […] The collected blood was added with sodium heparin for anticoagulation, followed by centrifugation to separate plasma, and the plasma was storing at −80° C. for determination. The content of tizoxanide in plasma was determined by LC-MS/MS (instrument: LC-MS/MS-19, TQ5500 Triple quad); internal Standard (IS) was tolbutamide; mass spectrum conditions: an electrospray ion source and a negative ion multiple reaction detection (Tizoxanide: […] ACQUITY UPLC CORTECS T3, 2.7 μm (2.1×100 mm); column temperature was 40° C.; flow rate was 0.6 mL/min. The pharmacokinetic parameters were calculated by utilizing WinNonlin according to the plasma concentration data at different time points. The results are shown in Table 1: […]

DHBV = assay: Evaluation of in vivo anti-hepatitis B virus effect (serum DHBV DNA, dot-blot hybridization); parameters: species or system sheld ducks (Tadorna); conditions: intragastric once daily
Description: The sheld ducks (Tadorna) with vertical transmission infection and positive DHBV DNA were randomly grouped, 8 sheld ducks each group. […] Blood was collected intravenously prior to administration (T0) and 7 days (T7), 14 days (T14), 21 days (T21) and 28 days ([…]) after administration, and the serum was separated and frozen at -70° C. for determination. Determination of DHBV DNA content in serum by using dot-blot molecular hybridization was as follows: the duck serum described above was taken, spots were simultaneously formed on detection films for each batch, the change of the DHBV DNA level in the duck serum was determined, the DHBV DNA probe was labeled by ^32P according to the method of the instruction of the nick translation kit, and a duck serum dot-blot experiment was performed.

[2] = tested on: influenza A virus mouse lung adaptive strain A/PR/8/34; format: in vivo, Kunming mice
[3] = in vivo, po; cited from earlier work
[4] = 200 mg/kg active ingredient basis, T0 (prior to administration)
[5] = 200 mg/kg active ingredient basis, T7 (7 days)
[6] = 200 mg/kg active ingredient basis, T14 (14 days)
[7] = 200 mg/kg active ingredient basis, T21 (21 days)
[8] = 200 mg/kg active ingredient basis, T28 (28 days)

For `CC(=O)Oc1ccccc1C(=O)Nc1ncc([N+](=O)[O-])s1` [Nitazoxanide, o-N-(5-nitrothiazol-2-yl)carbamoyl-phenol-acetate, reference compound], the “AUC(0-t)” value [1] was 1.3255 µg·h/mL, the “AUC(0-∞)” value [1] was 1.32791 µg·h/mL and the Cmax [1] was 0.38055 µg/mL. The T1/2 [1] was 0.65 h, the Tmax [1] was 2.00 h and the OD490 value (DHBV; [4]) was 1.67 ± 0.11. The OD490 value (DHBV; [5]) was 1.37 ± 0.27, the OD490 value (DHBV; [6]) was 1.19 ± 0.51 and the OD490 value (DHBV; [7]) was 0.72 ± 0.38**ΔΔ. For the same compound, the OD490 value (DHBV; [8]) was 0.72 ± 0.48**ΔΔ, the Survival rates ([2]; 50 mg/kg active ingredient basis, intragastric 2 times daily for 5 days, […], observed 14 days) was 2/10 and the Survival rates ([2]; 100 mg/kg active ingredient basis, intragastric 2 times daily for 5 days, […], observed 14 days) was 7/10. The “original form of nitazoxanide in blood” value [3] was “undetectable”.

With `O=C(Nc1ncc([N+](=O)[O-])s1)c1ccccc1O` [Tizoxanide choline salt of formula (I), tizoxanide choline salt] the “AUC(0-t)” value [1] was 2.07001 µg·h/mL, the “AUC(0-∞)” value [1] was 2.2803 µg·h/mL and the Cmax [1] was 0.83716 µg/mL. For the same compound, the T1/2 [1] was 2.53 h, the Tmax [1] was 0.25 h and the OD490 value (DHBV; 100 mg/kg active ingredient basis, T0 (prior to administration)) was 1.47 ± 0.20. For the same compound, the OD490 value (DHBV; 100 mg/kg active ingredient basis, T7 (7 days)) was 0.43 ± 0.18**ΔΔ, the OD490 value (DHBV; 100 mg/kg active ingredient basis, T14 (14 days)) was 0.39 ± 0.34**ΔΔ and the OD490 value (DHBV; 100 mg/kg active ingredient basis, T21 (21 days)) was 0.34 ± 0.25**ΔΔ. For the same compound, the OD490 value (DHBV; 100 mg/kg active ingredient basis, T28 (28 days)) was 0.53 ± 0.37**ΔΔ, the OD490 value (DHBV; [4]) was 0.96 ± 0.47 and the OD490 value (DHBV; [5]) was 0.15 ± 0.08**ΔΔ. The OD490 value (DHBV; [6]) was 0.10 ± 0.05**ΔΔ, the OD490 value (DHBV; [7]) was 0.07 ± 0.04**ΔΔ and the OD490 value (DHBV; [8]) was 0.27 ± 0.17**ΔΔ. For the same compound, the Survival rates ([2]; mouse, in vivo) was 9/10 and 3/10.
